ChEMBL document CHEMBL4376892, “Identification of Parthenolide Dimers as Activators of Pyruvate Kinase M2 in Xenografts of Glioblastoma Multiforme in Vivo” (J Med Chem, 2020)
Calls of active or inactive are those of the source. No cut-off for these calls is given here.

Columns and labels:
U-87 MG [1] = experiment: Antiproliferative activity against human U87 cells assessed as reduction in cell viability after 72 hrs by MTT assay; assay type: functional, cell-based, U-87MG ATCC
C6 = experiment: Antiproliferative activity against rat C6 cells assessed as reduction in cell viability after 72 hrs by MTT assay; assay type: functional, cell-based; details: C6, 72 h
NIH3T3 = experiment: Cytotoxicity against mouse 3T3 cells assessed as reduction in cell viability after 72 hrs by MTT assay; assay type: cell-based; details: NIH3T3, 72 h
A549 = experiment: Antiproliferative activity against human A549 cells assessed as reduction in cell viability after 72 hrs by MTT assay; assay type: functional, cell-based; details: A549, 72 h
U-118-MG [2] = experiment: Inhibition of colony formation in human U118MG cells after 7 days; assay type: functional, cell-based
U-118-MG [3] = experiment: Induction of apoptosis in human U118MG cells after 48 hrs by Annexin-V-FITC/PI-staining based flow cytometric analysis; assay type: functional, cell-based
U-87 MG [4] = experiment: Antimetastatic activity against human U87 cells assessed as reduction in cell migration at 2 uM after 24 hrs by crystal violet staining based transwell assay; assay type: functional; details: U-87MG ATCC
U-87 MG [5] = experiment: Antimetastatic activity against human U87 cells assessed as reduction in cell invasion at 2 uM after 24 hrs by crystal violet staining based transwell assay; assay type: functional; details: U-87MG ATCC
U-118-MG [6] = experiment: Antimetastatic activity against human U118MG cells assessed as reduction in cell migration at 2 uM after 24 hrs by crystal violet staining based transwell assay; assay type: functional
U-87MG ATCC [7] = experiment: Effect on total PKM2 protein expression in human U87 cells at 0.5 to 5 uM after 48 hrs by Western blot analysis; assay type: functional, cell-based
U-118-MG [8] = experiment: Effect on total PKM2 protein expression in human U118MG cells at 0.5 to 2 uM after 48 hrs by Western blot analysis; assay type: functional, cell-based
Pyruvate kinase PKM [9] = biological target: T1, Pyruvate kinase PKM (Homo sapiens, UniProt P14618); experiment: Activation of PKM2 in human U118MG cells assessed as increase in PKM2 tetramer formation at 0.5 to 1 uM after 48 hrs by chemical cross-linking based Western blot analysis; assay type: cell-based
Pyruvate kinase PKM [10] = biological target: T1, Pyruvate kinase PKM; experiment: Induction of tetrameric formation of recombinant human N-terminal 6His-tagged PKM2 expressed in Escherichia coli BL21 cells assessed as increase in particle size at 10 uM after 30 mins by dynamic laser light scattering analysis
U-87MG ATCC [11] = experiment: Effect on IKK-beta protein expression in human U87 cells at 0.2 to 0.5 uM after 48 hrs by Western blot analysis; assay type: functional, cell-based
U-87MG ATCC [12] = experiment: Effect on P65 protein expression in human U87 cells at 0.2 to 0.5 uM after 48 hrs by Western blot analysis; assay type: functional, cell-based
U-118-MG [13] = experiment: Effect on IKK-beta protein expression in human U118MG cells at 0.2 to 0.5 uM after 48 hrs by Western blot analysis; assay type: functional, cell-based
[14] = biological target: Transcription factor p65 (Homo sapiens) (UniProt Q04206); experiment: Effect on NFkappaB p65 nuclear translocation in human U118MG cells at 0.2 to 0.5 after 48 hrs by Western blot analysis; assay type: cell-based
Pyruvate kinase PKM [15] = biological target: T1, Pyruvate kinase PKM; experiment: Activation of PKM2 in human U87 cells assessed as inhibition of STAT3 phosphorylation at 1 to 2 uM after 24 hrs by Western blot analysis; assay type: cell-based; details: U-87MG ATCC
Pyruvate kinase PKM [16] = biological target: T1, Pyruvate kinase PKM; experiment: Activation of PKM2 in human U118MG cells assessed as inhibition of STAT3 phosphorylation at 1 to 2 uM after 24 hrs by Western blot analysis; assay type: cell-based
Pyruvate kinase PKM [17] = biological target: T1, Pyruvate kinase PKM; experiment: Activation of PKM2 in human U87 cells assessed as increase in E-cadherin expression at 1 to 2 uM after 24 hrs by Western blot analysis; assay type: cell-based; details: U-87MG ATCC
Pyruvate kinase PKM [18] = biological target: T1, Pyruvate kinase PKM; experiment: Activation of PKM2 in human U118MG cells assessed as increase in E-cadherin expression at 1 to 2 uM after 24 hrs by Western blot analysis; assay type: cell-based
Pyruvate kinase PKM [19] = biological target: T1, Pyruvate kinase PKM; experiment: Activation of PKM2 in human U87 cells assessed as increase in bax protein expression at 1 to 2 uM after 48 hrs by Western blot analysis; assay type: cell-based; details: U-87MG ATCC
Pyruvate kinase PKM [20] = biological target: T1, Pyruvate kinase PKM; experiment: Activation of PKM2 in human U87 cells assessed as reduction in bcl2 expression at 1 to 2 uM after 48 hrs by Western blot analysis; assay type: cell-based; details: U-87MG ATCC
Pyruvate kinase PKM [21] = biological target: T1, Pyruvate kinase PKM; experiment: Activation of PKM2 in human U118MG cells assessed as reduction in bcl-xl expression at 1 to 2 uM after 48 hrs by Western blot analysis; assay type: cell-based
Pyruvate kinase PKM [22] = biological target: T1, Pyruvate kinase PKM; experiment: Activation of PKM2 in human U118MG cells assessed as inhibition of STAT3 protein expression at 2 uM after 48 hrs by Western blot analysis; assay type: cell-based
Pyruvate kinase PKM [23] = biological target: T1, Pyruvate kinase PKM; experiment: Activation of PKM2 in human U87 cells assessed as inhibition of STAT3 protein expression at 5 uM after 48 hrs by Western blot analysis; assay type: cell-based; details: U-87MG ATCC
U-87MG ATCC [24] = experiment: Induction of PDK4 protein expression in human U87 cells at 5 uM after 48 hrs by Western blot analysis; assay type: functional, cell-based
U-118-MG [25] = experiment: Antiproliferative activity against human U118MG cells transfected with lentivirus expressing shPKM2 assessed as as reduction in cell viability after 24 hrs by MTT assay; assay type: functional, cell-based
U-87 MG [26] = experiment: Antiproliferative activity against human U87 cells transfected with lentivirus expressing shNC assessed as reduction in cell viability after 24 hrs by MTT assay; assay type: functional, cell-based, U-87MG ATCC
U-118-MG [27] = experiment: Antiproliferative activity against human U118MG cells transfected with lentivirus expressing shNC assessed as reduction in cell viability after 24 hrs by MTT assay; assay type: functional, cell-based
U-87 MG [28] = experiment: Induction of apoptosis in human U87 cells transfected with lentivirus expressing shNC assessed as viable cells after 48 hrs by Annexin-V-FITC/PI-staining based flow cytometric analysis (reference value: 98.5%); assay type: functional, U-87MG ATCC
U-87 MG [29] = experiment: Induction of apoptosis in human U87 cells transfected with lentivirus expressing shPKM2 assessed as necrotic cells after 48 hrs by Annexin-V-FITC/PI-staining based flow cytometric analysis (reference value: 0.580%); assay type: functional, U-87MG ATCC
U-118-MG [30] = experiment: Induction of apoptosis in human U118MG cells transfected with lentivirus expressing shNC assessed as late apoptotic cells after 48 hrs by Annexin-V-FITC/PI-staining based flow cytometric analysis (reference value: 0.334%); assay type: functional
U-118-MG [31] = experiment: Induction of apoptosis in human U118MG cells assessed as necrotic cells after 48 hrs by Annexin-V-FITC/PI-staining based flow cytometric analysis (reference value: 1.37%); assay type: functional
U-87 MG [32] = experiment: Induction of apoptosis in human U87 cells assessed as viable cells after 48 hrs by Annexin-V-FITC/PI-staining based flow cytometric analysis (reference value: 93.8%); assay type: functional, U-87MG ATCC
Pyruvate kinase PKM [33] = biological target: T1, Pyruvate kinase PKM; experiment: Binding affinity to recombinant human N-terminal 6His-tagged PKM2 expressed in Escherichia coli BL21 cells assessed as increase in thermal stability of enzyme at melting temperature of 42 to 56 degC at 10 to 50 uM by western blot analysis
Pyruvate kinase PKM [34] = biological target: T1, Pyruvate kinase PKM; experiment: Covalent binding affinity to recombinant human N-terminal 6His-tagged PKM2 expressed in Escherichia coli BL21 Cells after 2 hrs by LC-MS/MS analysis
Pyruvate kinase PKM [35] = biological target: T1, Pyruvate kinase PKM; experiment: Activation of recombinant human N-terminal 6His-tagged PKM2 expressed in Escherichia coli BL21 cells at 0.2 to 0.5 uM after 50 mins by fluorescence based analysis
U-87 MG [36] = experiment: Antiinvasive activity against human U87 cells transfected with lentivirus expressing shNC at 2 uM incubated for 48 hrs by crystal violet staining based transwell assay; assay type: functional, cell-based; details: U-87MG ATCC

T1 sequence (P14618 2-531 limits assumed): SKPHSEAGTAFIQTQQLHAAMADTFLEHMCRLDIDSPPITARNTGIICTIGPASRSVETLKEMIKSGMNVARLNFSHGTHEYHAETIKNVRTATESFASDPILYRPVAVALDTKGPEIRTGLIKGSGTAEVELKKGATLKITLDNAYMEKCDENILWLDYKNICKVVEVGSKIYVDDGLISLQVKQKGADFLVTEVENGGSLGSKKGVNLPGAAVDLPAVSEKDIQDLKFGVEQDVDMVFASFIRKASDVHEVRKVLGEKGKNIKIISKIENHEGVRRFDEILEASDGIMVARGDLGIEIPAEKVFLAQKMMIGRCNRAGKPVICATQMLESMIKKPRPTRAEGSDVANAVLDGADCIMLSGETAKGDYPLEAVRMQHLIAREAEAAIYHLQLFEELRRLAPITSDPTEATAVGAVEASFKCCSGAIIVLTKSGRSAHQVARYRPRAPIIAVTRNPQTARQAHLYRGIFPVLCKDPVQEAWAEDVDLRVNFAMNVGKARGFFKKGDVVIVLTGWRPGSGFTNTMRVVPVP
Chain of Transcription factor p65 (Homo sapiens) (Q04206 whole entry): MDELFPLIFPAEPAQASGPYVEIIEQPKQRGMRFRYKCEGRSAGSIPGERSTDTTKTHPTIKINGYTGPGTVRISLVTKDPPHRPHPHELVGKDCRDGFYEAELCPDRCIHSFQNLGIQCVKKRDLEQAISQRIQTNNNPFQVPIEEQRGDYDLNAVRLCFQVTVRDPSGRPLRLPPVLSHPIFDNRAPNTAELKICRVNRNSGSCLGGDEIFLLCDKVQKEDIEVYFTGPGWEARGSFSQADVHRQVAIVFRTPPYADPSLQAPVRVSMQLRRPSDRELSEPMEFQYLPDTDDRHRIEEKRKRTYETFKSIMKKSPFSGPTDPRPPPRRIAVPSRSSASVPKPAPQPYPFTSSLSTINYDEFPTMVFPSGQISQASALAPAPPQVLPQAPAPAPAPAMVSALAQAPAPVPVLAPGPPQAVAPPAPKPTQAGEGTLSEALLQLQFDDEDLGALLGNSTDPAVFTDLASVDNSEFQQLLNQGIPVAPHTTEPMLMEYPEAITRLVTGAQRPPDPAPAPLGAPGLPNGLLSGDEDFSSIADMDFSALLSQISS

IC50 (U-87 MG [1]): 3.03 µM | IC50 (A549): 11.9 µM | Activity (Pyruvate kinase PKM [9]): Active | Activity (Pyruvate kinase PKM [10]): Active | Activity [14]: inactive | Activity (Pyruvate kinase PKM [15]): Active | Activity (Pyruvate kinase PKM [16]): Active | Activity (Pyruvate kinase PKM [17]): Active | Activity (Pyruvate kinase PKM [18]): Active | Activity (Pyruvate kinase PKM [19]): Active | Activity (Pyruvate kinase PKM [20]): Active | Activity (Pyruvate kinase PKM [21]): Active | Activity (Pyruvate kinase PKM [22]): Active | Activity (Pyruvate kinase PKM [23]): Active | IC50 (U-87 MG [26]): 7.39 µM | Activity (Pyruvate kinase PKM [33]): Active | Activity (Pyruvate kinase PKM [34]): Active | Activity (Pyruvate kinase PKM [35]): Active
SMILES: C=C1C(=O)O[C@H]2[C@H]1CC/C(C(=O)OCCOCCOC(=O)/C1=C/CC[C@@]3(C)O[C@H]3[C@H]3OC(=O)C(=C)[C@@H]3CC1)=C\CC[C@@]1(C)O[C@@H]21
IC50 (C6): 1.66 µM | IC50 (NIH3T3): 7.93 µM | inhibition (U-118-MG [2]): Dose-dependent effect | Activity (U-118-MG [3]): Dose-dependent effect | Activity (U-87 MG [4]): Active | Activity (U-87 MG [5]): Active | Activity (U-118-MG [6]): Active | Activity (U-87MG ATCC [7]): inactive | Activity (U-118-MG [8]): inactive | Activity (U-87MG ATCC [11]): inactive | Activity (U-87MG ATCC [12]): inactive | Activity (U-118-MG [13]): inactive | Activity (U-87MG ATCC [24]): Active | IC50 (U-118-MG [25]): 1.98 µM | IC50 (U-118-MG [27]): 1.04 µM | Activity (U-87 MG [28]): 85.1% | Activity (U-87 MG [29]): 0.539% | Activity (U-118-MG [30]): 16.4% | Activity (U-118-MG [31]): 6.01% | Activity (U-87 MG [32]): 72.5% | Activity (U-87 MG [36]): Active
